# “And” between values parts separate entries of the source, which are not always exact repeats. Equal values may be shown once. Inconclusive results and toxic doses are left out.
# System: BDF1 mice, P388 leukemia ip, median survival T/C
# Assay: NCI In Vivo Anticancer Drug Screen. Data for tumor model P388 Leukemia (intraperitoneal) in B6D2F1 (BDF1) mice
# Details: endpoint: median survival time, higher = longer survival
# Summary of the method: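 Survival ratio, drug arm over vehicle arm, in mice with a transplanted tumour.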
# [1] = dose: 25.0 mg/kg/injection, schedule: Q01DX009 (ip), vehicle: saline with Tween-80
# [2] = dose: 50.0 mg/kg/injection, schedule: Q01DX009 (ip), vehicle: saline with Tween-80
# [3] = dose: 100.0 mg/kg/injection, schedule: Q04DX003 (ip), vehicle: saline with Tween-80
# [4] = dose: 50.0 mg/kg/injection, schedule: Q01DX009 (ip), vehicle: saline + alcohol
# [5] = dose: 100.0 mg/kg/injection, schedule: Q01DX009 (ip), vehicle: saline + alcohol
# [6] = dose: 50.0 mg/kg/injection, schedule: Q04DX003 (ip), vehicle: saline
# [7] = dose: 100.0 mg/kg/injection, schedule: Q01DX009 (ip), vehicle: saline
# [8] = dose: 100.0 mg/kg/injection, schedule: Q04DX003 (ip), vehicle: saline
# [9] = dose: 200.0 mg/kg/injection, schedule: Q04DX003 (ip), vehicle: saline
# [10] = dose: 100.0 mg/kg/injection, schedule: Q01DX009 (ip), vehicle: saline with Tween-80
# [11] = dose: 200.0 mg/kg/injection, schedule: Q01DX009 (ip), vehicle: saline with Tween-80
# [12] = dose: 100.0 mg/kg/injection, schedule: Q04DX003 (ip), vehicle: Klucel (hydroxypropylcellulose) (HPC)
# [13] = dose: 200.0 mg/kg/injection, schedule: Q04DX003 (ip), vehicle: Klucel (hydroxypropylcellulose) (HPC)
# [14] = dose: 200.0 mg/kg/injection, schedule: Q01DX009 (ip), vehicle: Klucel (hydroxypropylcellulose) (HPC)
# [15] = dose: 12.5 mg/kg/injection, schedule: Q01DX009 (ip), vehicle: saline with Tween-80
smiles,measurement,setting,value
CC(C)(CC(=O)O)CC(=O)OCC(=O)[C@@]1(O)CC[C@H]2[C@@H]3CCC4=CC(=O)C=C[C@]4(C)[C@H]3[C@@H](O)C[C@@]21C,T/C,"dose: 100.0 mg/kg/injection, schedule: Q01DX009 (ip), vehicle: steriod suspending solution",100 % of control
same,T/C,"dose: 100.0 mg/kg/injection, schedule: Q01DX009 (sc), vehicle: steriod suspending solution",120 % of control
same,T/C,"dose: 100.0 mg/kg/injection, schedule: Q04DX003 (sc), vehicle: steriod suspending solution",108 % of control
same,T/C,"dose: 200.0 mg/kg/injection, schedule: Q01DX009 (ip), vehicle: steriod suspending solution",90 % of control
same,T/C,"dose: 200.0 mg/kg/injection, schedule: Q01DX009 (sc), vehicle: steriod suspending solution",120 % of control and 122 % of control
same,T/C,"dose: 200.0 mg/kg/injection, schedule: Q04DX003 (sc), vehicle: steriod suspending solution",100 % of control
same,T/C,"dose: 400.0 mg/kg/injection, schedule: Q01DX009 (ip), vehicle: steriod suspending solution",90 % of control
same,T/C,"dose: 400.0 mg/kg/injection, schedule: Q01DX009 (sc), vehicle: steriod suspending solution",110 % of control
same,T/C,"dose: 400.0 mg/kg/injection, schedule: Q04DX003 (sc), vehicle: steriod suspending solution",104 % of control
c1ccc(C2OC3(CCCCC3)C[N+]23CCCC3)cc1 (stereo unspecified),T/C,[1],95 % of control
same,T/C,[2],113 % of control
same,T/C,"dose: 50.0 mg/kg/injection, schedule: Q04DX003 (ip), vehicle: saline with Tween-80",100 % of control
same,T/C,[3],87 % of control
CCc1cccc(CC)c1-n1c(C)ccc1-c1ccccc1,T/C,[4],106 % of control
same,T/C,[5],101 % of control
same,T/C,"dose: 200.0 mg/kg/injection, schedule: Q01DX009 (ip), vehicle: saline + alcohol",106 % of control
O=C(O)CCCl,T/C,[6],104 % of control
same,T/C,[7],91 % of control
same,T/C,[8],104 % of control
same,T/C,"dose: 200.0 mg/kg/injection, schedule: Q01DX009 (ip), vehicle: saline",95 % of control
same,T/C,[9],100 % of control
COc1cccc(CC(=O)NCCc2ccc(OC)c(OC)c2)c1,T/C,[3],100 % of control
same,T/C,"dose: 200.0 mg/kg/injection, schedule: Q04DX003 (ip), vehicle: saline with Tween-80",90 % of control
same,T/C,"dose: 400.0 mg/kg/injection, schedule: Q04DX003 (ip), vehicle: saline with Tween-80",100 % of control
O=C(Nc1ccc(F)cc1)C(F)(F)F,T/C,[2],106 % of control
same,T/C,[10],98 % of control
same,T/C,[11],105 % of control
CC(C)(C)c1cc([N+](=O)[O-])cc([N+](=O)[O-])c1O,T/C,"dose: 0.78 mg/kg/injection, schedule: Q01DX009 (ip), vehicle: saline with Tween-80",105 % of control
same,T/C,"dose: 1.56 mg/kg/injection, schedule: Q01DX009 (ip), vehicle: saline with Tween-80",101 % of control
same,T/C,"dose: 3.13 mg/kg/injection, schedule: Q01DX009 (ip), vehicle: saline with Tween-80",101 % of control
same,T/C,"dose: 6.25 mg/kg/injection, schedule: Q01DX009 (ip), vehicle: saline with Tween-80",99 % of control
Nc1ccc2ccccc2c1N=Nc1ccccc1,T/C,[12],109 % of control
same,T/C,[13],123 % of control
COc1cc2c(cc1OC)-c1c3c(cc4c1[C@@H](C2)N(C)CC4)OCO3,T/C,"dose: 12.5 mg/kg/injection, schedule: Q01DX009 (ip), vehicle: acid diluted with saline",100 % of control
same,T/C,"dose: 25.0 mg/kg/injection, schedule: Q01DX009 (ip), vehicle: acid diluted with saline",100 % of control
same,T/C,"dose: 50.0 mg/kg/injection, schedule: Q01DX009 (ip), vehicle: acid diluted with saline",105 % of control
CSc1nnc([N+](=O)[O-])s1,T/C,"dose: 1.56 mg/kg/injection, schedule: Q01DX009 (ip), vehicle: Klucel (hydroxypropylcellulose) (HPC)",110 % of control
same,T/C,"dose: 3.12 mg/kg/injection, schedule: Q01DX009 (ip), vehicle: Klucel (hydroxypropylcellulose) (HPC)",100 % of control
same,T/C,"dose: 6.25 mg/kg/injection, schedule: Q01DX009 (ip), vehicle: Klucel (hydroxypropylcellulose) (HPC)",110 % of control
O=C1C(OC(=O)c2ccccc2)=C(c2ccc(O)cc2)C(=O)C(OC(=O)c2ccccc2)=C1c1ccc(O)cc1,T/C,"dose: 100.0 mg/kg/injection, schedule: Q01DX009 (ip), vehicle: Klucel (hydroxypropylcellulose) (HPC)",100 % of control
same,T/C,[14],100 % of control
same,T/C,"dose: 400.0 mg/kg/injection, schedule: Q01DX009 (ip), vehicle: Klucel (hydroxypropylcellulose) (HPC)",92 % of control
O=C1N(Br)C(=O)C(c2ccc(Cl)cc2)(c2ccc(Cl)cc2)N1Br,T/C,[15],113 % of control
same,T/C,"dose: 45.0 mg/kg/injection, schedule: Q04DX003 (ip), vehicle: Klucel (hydroxypropylcellulose) (HPC)",90 % of control
same,T/C,[2],172 % of control
same,T/C,"dose: 65.0 mg/kg/injection, schedule: Q04DX003 (ip), vehicle: Klucel (hydroxypropylcellulose) (HPC)",95 % of control
same,T/C,"dose: 100.0 mg/kg/injection, schedule: Q04DX003 (ip), vehicle: alcohol",150 % of control
same,T/C,"dose: 100.0 mg/kg/injection, schedule: Q04DX003 (ip), vehicle: saline sonified",115 % of control
same,T/C,"dose: 130.0 mg/kg/injection, schedule: Q01DX009 (ip), vehicle: Klucel (hydroxypropylcellulose) (HPC)",156 % of control
same,T/C,"dose: 132.0 mg/kg/injection, schedule: Q01DX009 (ip), vehicle: Klucel (hydroxypropylcellulose) (HPC)",95 % of control
same,T/C,"dose: 132.0 mg/kg/injection, schedule: Q04DX003 (ip), vehicle: Klucel (hydroxypropylcellulose) (HPC)",177 % of control
same,T/C,"dose: 132.0 mg/kg/injection, schedule: Q04DX003 (ip), vehicle: saline",165 % of control
same,T/C,"dose: 200.0 mg/kg/injection, schedule: Q01DX003 (ip), vehicle: Klucel (hydroxypropylcellulose) (HPC)",154 % of control
same,T/C,[14],175 % of control
same,T/C,[13],154 % of control
same,T/C,"dose: 200.0 mg/kg/injection, schedule: Q04DX003 (ip), vehicle: alcohol",185 % of control
same,T/C,"dose: 200.0 mg/kg/injection, schedule: Q04DX003 (ip), vehicle: saline sonified",160 % of control
same,T/C,"dose: 300.0 mg/kg/injection, schedule: Q04DX003 (ip), vehicle: saline",150 % of control
same,T/C,"dose: 400.0 mg/kg/injection, schedule: Q04DX003 (ip), vehicle: alcohol",150 % of control
CC1C=CC(C)C(C(=O)c2ccccc2)C1C(=O)c1ccccc1 (stereo unspecified),T/C,[12],104 % of control
same,T/C,[13],100 % of control
same,T/C,"dose: 400.0 mg/kg/injection, schedule: Q04DX003 (ip), vehicle: Klucel (hydroxypropylcellulose) (HPC)",100 % of control
CS(=O)(=O)CC(O)(c1ccccc1)c1cccs1 (stereo unspecified),T/C,[2],99 % of control
same,T/C,[10],100 % of control
same,T/C,[11],100 % of control
CCCCCCCCCCCCCC[N+](C)(C)CC(=O)O,T/C,[15],103 % of control
same,T/C,[1],106 % of control
same,T/C,[2],113 % of control
COc1ccc(/C=C/C(=O)c2ccc3c(c2)OCO3)cc1O,T/C,"dose: 3.12 mg/kg/injection, schedule: Q01DX009 (ip), vehicle: saline",104 % of control and 106 % of control
same,T/C,"dose: 6.25 mg/kg/injection, schedule: Q01DX009 (ip), vehicle: saline",93 % of control and 104 % of control
same,T/C,"dose: 12.5 mg/kg/injection, schedule: Q01DX009 (ip), vehicle: saline",100 % of control
same,T/C,"dose: 25.0 mg/kg/injection, schedule: Q01DX009 (ip), vehicle: saline",94 % of control and 110 % of control
same,T/C,"dose: 50.0 mg/kg/injection, schedule: Q01DX009 (ip), vehicle: saline",101 % of control and 107 % of control
same,T/C,[6],106 % of control
same,T/C,[7],93 % of control and 96 % of control
same,T/C,[8],113 % of control
same,T/C,[9],104 % of control
same,T/C,"dose: 400.0 mg/kg/injection, schedule: Q04DX003 (ip), vehicle: saline",114 % of control
C[C@]12C=CC(=O)C=C1CC[C@H]1[C@@H]3CCC(=O)O[C@@]3(C)CC(=O)[C@@]12F,T/C,[10],100 % of control
same,T/C,[11],100 % of control
same,T/C,"dose: 400.0 mg/kg/injection, schedule: Q01DX009 (ip), vehicle: saline with Tween-80",100 % of control
Fc1ccc(NC(=S)SCc2ccc3c(c2)OCO3)cc1F,T/C,[4],116 % of control
same,T/C,[2],109 % of control
same,T/C,[5],116 % of control
same,T/C,[10],116 % of control
same,T/C,[11],155 % of control
